Like-named read-outs stand apart in the source and are kept apart here. Marks after values point to notes of the source that are not given here.
Experiments:
Caco-2 cell monolayer = experiment: Accumulation of AGEs in the Caco-2 cell monolayer after transport experiment; format: in vitro ADME, Human; conditions: mixture, each AGE 100 μmol/L, 2 h
Protocol: After the transport experiment, the cell monolayer on the inset membrane was washed three times with HBSS and three times with PBS. […] The samples were subsequently centrifuged at 16 000g for 20 min at 4 °C, and the supernatant was collected for further analysis by LC-MS.
The analytical column was maintained at 40 °C throughout the quantification process. A multistep binary gradient system of water containing 0.1% (v/v) formic acid (solvent A) and acetonitrile containing 0.1% (v/v) formic acid (solvent B) was used. In the whole gradient program, the total proportion of solvents A and B is always equal to 100%. […] The initial flow rate was set to 0.30 mL/min. Subsequently, it was reduced to 0.25 mL/min at 0.3 min, which was kept until 10 min. Afterward, there was a gradual decrease, reaching 0.15 mL/min at 11 min, and this rate was maintained until 12 min. […] Between 1 and 11 min of gradient running, the line was set to MS, and for the other time periods, the line was set to waste. The retention time and mass spectrometry parameters of individual AGEs are listed in Table S1 and the chromatograms of the samples are shown in Figure S1.

[1] = test system: differentiated Caco-2 cells; experiment: WST-1 cytotoxicity assay, viability of differentiated Caco-2 cells after 2 h exposure; format: cell-based, Human; conditions: for the mixture: concentration of each AGE
Protocol: (§1) Human colon carcinoma cells (Caco-2 cells) were obtained from the American Type Culture Collection (ATCC, Rockville, MD, USA). Caco-2 cells were cultured in complete culture medium, composed of DMEM GlutaMAX with 10% FBS (v/v), 1% P/S (v/v), and 1% NEAA (v/v) at 37 °C in a 5% (v/v) CO2 incubator. In this study, Caco-2 cells within passages 10–15 were utilized.
The WST-1 assay was used to quantify the viability of differentiated Caco-2 cells upon exposure to the individual AGEs and their equimolar mixture. To this end, Caco-2 cells were seeded in 96-well plates at 3 × 10^4 cells/well (100 μL) and incubated at 37 °C under 5% (v/v) CO2 for 20 days. The complete culture medium was refreshed on each alternate day. After full differentiation, the culture medium was removed, and the cells were washed with HBSS (containing 1% (v/v) HEPES) twice on the testing day. The same volume (100 μL) of HBSS containing a series of concentrations of the different individual test compounds or of a mixture containing all 10 AGEs was added from a 20-times-concentrated stock solution in HBSS. The test concentrations were designed based on the estimated daily intake of total AGEs (0.55–0.66 mg/(kg·day)) and high-exposure scenarios (1.4–1.8 mg/(kg day)). […] After exposure for 2 h, the absorbance at 440 and 620 nm was measured in a plate spectrophotometer (Molecular Devices, San Jose, CA, USA, Spectra Max M2). After measurement, the cell viability was calculated as cell viability (%)=(Atested 440 nm−Atested 620 nm)/(Acontrol 440 nm−Acontrol 620 nm)×100

PepT1 = experiment: Transport of AGE mixture across Caco-2 cell layer (transwell, apical to basolateral); format: in vitro ADME, Human; conditions: human, mixture, each AGE 100 μmol/L; for recovery at 2 h, 100 μmol/L: Caco-2, with Gly-Sar 10 mmol/L (apical compartment), Gly-Sar 10 mmol/L, read-out: percentage of the amount added at the apical side at t = 0: recovery; for Papp at 120 min, 100 μmol/L: Caco-2, with Gly-Sar 10 mmol/L (apical), 10 mmol/L Gly-Sar apical (PepT1 inhibition), data from 120 min
Protocol: as §1
(§2) Caco-2 cells were cultured until reaching 50%–60% confluence (undifferentiated Caco-2 cells), followed by trypsinization. Then, cells were seeded at 3 × 10^4 cells per insert in 100 μL of complete culture medium into the transwell inserts of a 24-well transwell plate, and 600 μL of complete culture medium was added to the basolateral compartments. In both the apical and basolateral compartments, the medium was renewed every other day. After 2 weeks, the transepithelial electrical resistance (TEER) value was measured using a Millicell ERS-2 Electrical Resistance System (Burlington, MA, USA) every other day. Only wells with a TEER value of >400 Ω/cm^2 were used for transport experiments. Moreover, the TEER value was measured before and after the transport experiment to ascertain that the Caco-2 cell layer remained intact during the whole transport experiment.
(§3) Transport experiments were performed after 20 days of differentiation of the Caco-2 cells. The culture medium was replaced with HBSS (containing 1% (v/v) HEPES) 30 min prior to testing in both the apical and basolateral compartments. After the 30 min preincubation, 100 μL of HBSS containing a mixture of the 10 different AGEs including CML, CEL, GALA, argpyrimidine, MG-H1, GOLD, GOLA, MOLD, pentosidine, and pyrraline, each at 100 μmol/L, was added to the apical compartment after removing the preincubation medium, while the basolateral medium was replaced by 600 μL of HBSS. […] At 120 min, a 10 μL sample from the apical side was taken for calculating apical side retention (nontransported percentage).
(§4) The apparent permeability coefficient (Papp) value was calculated according to the methodology described by Yee.
(§5) AGEs were quantified by LC-MS using a Shimadzu Nexera XR LC-40D XR UPLC system (Kyoto, Japan) equipped with a UPLC Amide column (100 mm × 2.1 mm, 1.7 μm) without derivatization coupled with a Shimadzu LCMS-8045 triple quadrupole mass spectrometer (Kyoto, Japan). The analytical column was maintained at 40 °C throughout the quantification process. A multistep binary gradient system of water containing 0.1% (v/v) formic acid (solvent A) and acetonitrile containing 0.1% (v/v) formic acid (solvent B) was used. In the whole gradient program, the total proportion of solvents A and B is always equal to 100%. The gradient program was designed as follows: 75% solvent B to 12.5% solvent B from 0 to 10 min, followed by 12.5% solvent B from 10 to 11 min. […] The initial flow rate was set to 0.30 mL/min. Subsequently, it was reduced to 0.25 mL/min at 0.3 min, which was kept until 10 min. Afterward, there was a gradual decrease, reaching 0.15 mL/min at 11 min, and this rate was maintained until 12 min. […] Between 1 and 11 min of gradient running, the line was set to MS, and for the other time periods, the line was set to waste. The retention time and mass spectrometry parameters of individual AGEs are listed in Table S1 and the chromatograms of the samples are shown in Figure S1.

[2] = as above; format: in vitro ADME, Human; conditions: human; for recovery at 2 h, 100 μmol/L: read-out: percentage of the amount added at the apical side at t = 0: recovery; for Papp at 120 min, 100 μmol/L: data from 120 min
Protocol: as §1, §2, §3, §4, §5

Caco-2 cell layer = experiment: as above; format: in vitro ADME, Human; conditions: mixture, each AGE 100 μmol/L, 2 h
Protocol: as §1, §2, §3, §4, §5

[3] = Caco-2, 4 °C, mixture, each AGE 100 μmol/L
[4] = Caco-2, cytochalasin D pretreatment, mixture, each AGE 100 μmol/L
[5] = Caco-2, standard treatment (37 °C), equimolar mixture of 10 AGEs, each 100 μmol/L apical
[6] = Caco-2, standard treatment, mixture, each AGE 100 μmol/L
[7] = Caco-2, cytochalasin D 1 μg/mL, 30 min apical preincubation, mixture, each AGE 100 μmol/L

SMILES	percentage of the amount added at the apical side at t = 0: accumulation (Caco-2 cell monolayer; 4 °C)	percentage of the amount added at the apical side at t = 0: accumulation (Caco-2 cell monolayer; Gly-Sar 10 mmol/L)	percentage of the amount added at the apical side at t = 0: accumulation (Caco-2 cell monolayer; cytochalasin D pretreatment)	concentration that did not significantly affect cell viability [1] [µmol/L]	recovery at 2 h, 100 μmol/L (PepT1) [%]	Papp at 120 min, 100 μmol/L (PepT1) [×10⁻⁶ cm/s]	recovery at 2 h, 100 μmol/L [2, 3] [%]	Papp at 120 min, 100 μmol/L [2, 3] [×10⁻⁶ cm/s]	recovery at 2 h, 100 μmol/L [2, 4] [%]	Papp at 120 min, 100 μmol/L [2, 5] [×10⁻⁶ cm/s]	recovery at 2 h, 100 μmol/L [2, 6] [%]	Papp at 120 min, 100 μmol/L [2, 7] [×10⁻⁶ cm/s]	percentage of the amount added at the apical side at t = 0: apical side (Caco-2 cell layer; 4 °C)	percentage of the amount added at the apical side at t = 0: basolateral side (Caco-2 cell layer; 4 °C)	percentage of the amount added at the apical side at t = 0: apical side (Caco-2 cell layer; Gly-Sar 10 mmol/L)	percentage of the amount added at the apical side at t = 0: basolateral side (Caco-2 cell layer; Gly-Sar 10 mmol/L)	percentage of the amount added at the apical side at t = 0: apical side (Caco-2 cell layer; cytochalasin D pretreatment)	percentage of the amount added at the apical side at t = 0: basolateral side (Caco-2 cell layer; cytochalasin D pretreatment)	percentage of the amount added at the apical side at t = 0: apical side (nontransported) (Caco-2 cell layer; standard treatment)	other results
Cc1c[n+](CCCC[C@H](N)C(=O)O)cn1CCCC[C@H](N)C(=O)O [MOLD, methylglyoxal–lysine dimer]	0.0 ± 0.0 ^a %	0.0 ± 0.1 ^a %	0.0 ± 0.1 ^a %	≤ 1500	93.8 ± 7.2	0.11	83.1 ± 6.5	0.057	91.7 ± 12.6	0.098	90.8 ± 7.9	0.34	83.0 ± 6.5 ^b %	0.1 ± 0.1 ^b %	93.5 ± 7.2 ^a %	0.3 ± 0.2 ^b %	90.8 ± 12.2 ^ab %	0.8 ± 0.6 ^a %	90.6 ± 7.7 ^ab %	percentage of the amount added at the apical side at t = 0: basolateral side (transported) (Caco-2 cell layer; standard treatment): 0.2 ± 0.2 ^b %
Cc1nc(NCCC[C@H](N)C(=O)O)nc(C)c1O [argpyrimidine]	0.0 ± 0.0 ^b %	0.5 ± 0.2 ^a %	0.5 ± 0.3 ^a %	≤ 500	94.6 ± 5.2	0.141	87.4 ± 5.4	0.099	94.7 ± 5.4	0.145	91.8 ± 5.9	0.395	87.1 ± 5.4 ^b %	0.2 ± 0.1 ^b %	93.8 ± 5.0 ^a %	0.3 ± 0.1 ^b %	93.3 ± 5.2 ^a %	0.9 ± 0.6 ^a %	91.2 ± 5.9 ^ab %	percentage of the amount added at the apical side at t = 0: accumulation (intracellular) (Caco-2 cell monolayer; standard treatment): 0.2 ± 0.2 ^b %

Source: publication PMC12426922, “Fingerprinting the Intestinal Transport of Low-Molecular-Mass Advanced Glycation End-Products (AGEs) Using a Caco‑2 Transwell Model” (Journal of Agricultural and Food Chemistry, 2025)
